Laboratory results taken from US20230085307A1, “PYRIDAZINONE COMPOUND AND HERBICIDE” (NISSAN CHEMICAL CORPORATION, priority 2019, published 2023).

What was measured:
[1] = tested on: green foxtail; test: Test Example 4: herbicidal effect by soil treatment (Table 19, symbol G); format: in vivo, green foxtail (Setaria viridis); settings: amount of applied herbicide 320 g/ha
How it was run: (§1)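 Step 1: sow seeds in sterilized diluvial soil, cover ~1.5 cm. Step 2: spray diluted emulsion onto soil surface at predetermined rate. Step 3: greenhouse, 25–30° C, three weeks. Step 4: grade effect on each plant by earlier criteria.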

[2] = tested on: false cleavers; test: Test Example 4: herbicidal effect by soil treatment (Table 19, symbol Q); format: in vivo, false cleavers (Galium spurium); settings: amount of applied herbicide 320 g/ha
How it was run: as §1

[3] = tested on: blackgrass; test: Test Example 4: herbicidal effect by soil treatment (Table 19, symbol J); format: in vivo, blackgrass (Alopecurus myosuroides); settings: amount of applied herbicide 320 g/ha
How it was run: as §1

[4] = tested on: windgrass; test: Test Example 5: herbicidal effect by foliage application, plastic box (Table 20, symbol L); format: in vivo, windgrass (Apera spica-venti); settings: foliage application, 320 g/ha, three weeks after application
How it was run: (§2)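 Foliar spray test: emulsion formulation diluted in water to a set application rate, sprayed onto 14-day-old plants raised in diluvial soil at 25° C to 30° C under glass. Both herbicidal effect and crop effect rated visually three weeks later.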

[5] = tested on: barnyard grass; test: Test Example 5: herbicidal effect by foliage application, plastic box (Table 20, symbol H); format: in vivo, barnyard grass (Echinochloa crus-galli); settings: foliage application, 320 g/ha, three weeks after application
How it was run: as §2

[6] = tested on: lambsquarters; test: Test Example 5: herbicidal effect by foliage application, plastic box (Table 20, symbol O); format: in vivo, lambsquarters (Chenopodium album); settings: foliage application, 320 g/ha, three weeks after application
How it was run: as §2

[7] = tested on: Chinese sprangletop; test: Test Example 3: herbicidal effect by foliage application, Wagner pot (Table 18, symbol D); format: in vivo, chinese sprangletop (Leptochloa chinensis)
How it was run: (§3)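 Plants were sown in alluvial soil held under 0.1–0.5 cm standing water and grown 14 days in a greenhouse at 25–30 °C. An emulsifiable formulation, water-diluted to the set dose, was then sprayed onto the foliage, and effects were scored three weeks later using previously defined criteria.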

[8] = tested on: barnyard grass; test: Test Example 4: herbicidal effect by soil treatment (Table 19, symbol H); format: in vivo, barnyard grass (Echinochloa crus-galli); settings: amount of applied herbicide 320 g/ha
How it was run: as §1

[9] = tested on: blackgrass; test: Test Example 5: herbicidal effect by foliage application, plastic box (Table 20, symbol J); format: in vivo, blackgrass (Alopecurus myosuroides); settings: foliage application, 320 g/ha, three weeks after application
How it was run: as §2

[10] = tested on: chickweed; test: Test Example 4: herbicidal effect by soil treatment (Table 19, symbol P); format: in vivo, common chickweed (Stellaria media); settings: amount of applied herbicide 320 g/ha
How it was run: as §1

[11] = tested on: velvetleaf; test: Test Example 5: herbicidal effect by foliage application, plastic box (Table 20, symbol M); format: in vivo, velvetleaf (Abutilon theophrasti); settings: foliage application, 320 g/ha, three weeks after application
How it was run: as §2

[12] = tested on: persian speedwell; test: Test Example 5: herbicidal effect by foliage application, plastic box (Table 20, symbol R); format: in vivo, Persian speedwell (Veronica persica); settings: foliage application, 320 g/ha, three weeks after application
How it was run: as §2

[13] = tested on: lambsquarters; test: Test Example 4: herbicidal effect by soil treatment (Table 19, symbol O); format: in vivo, lambsquarters (Chenopodium album); settings: amount of applied herbicide 320 g/ha
How it was run: as §1

[14] = tested on: green foxtail; test: Test Example 5: herbicidal effect by foliage application, plastic box (Table 20, symbol G); format: in vivo, green foxtail (Setaria viridis); settings: foliage application, 320 g/ha, three weeks after application
How it was run: as §2

[15] = tested on: Japanese bulrush; test: Test Example 1: herbicidal activity, application before weed generation under submerged conditions (Table 16, symbol B); format: in vivo, Japanese bulrush (Schoenoplectus juncoides); settings: amount of applied herbicide 320 g/ha
How it was run: (§4)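 Alluvial soil was flooded to 4 cm depth, weed seeds were sown mixed and 2.5-leaf rice seedlings were transplanted. On sowing day, the compound's emulsion, diluted in water to a set dose, was applied to the water surface. Plants grew at 25–30 °C and were scored 0–5 after three weeks.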

[16] = tested on: barnyard grass; test: Test Example 3: herbicidal effect by foliage application, Wagner pot (Table 18, symbol H); format: in vivo, barnyard grass (Echinochloa crus-galli)
How it was run: as §3

[17] = tested on: late watergrass; test: Test Example 1: herbicidal activity, application before weed generation under submerged conditions (Table 16, symbol A); format: in vivo, late watergrass (Echinochloa oryzicola); settings: amount of applied herbicide 320 g/ha
How it was run: as §4

[18] = tested on: Italian ryegrass; test: Test Example 4: herbicidal effect by soil treatment (Table 19, symbol K); format: in vivo, Italian ryegrass (Lolium multiflorum); settings: amount of applied herbicide 320 g/ha
How it was run: as §1

[19] = tested on: wild oat; test: Test Example 5: herbicidal effect by foliage application, plastic box (Table 20, symbol I); format: in vivo, wild oat (Avena fatua); settings: foliage application, 320 g/ha, three weeks after application
How it was run: as §2

[20] = tested on: southern crabgrass; test: Test Example 4: herbicidal effect by soil treatment (Table 19, symbol F); format: in vivo, southern crabgrass (Digitaria ciliaris); settings: amount of applied herbicide 320 g/ha
How it was run: as §1

[21] = tested on: rice flat sedge; test: Test Example 3: herbicidal effect by foliage application, Wagner pot (Table 18, symbol E); format: in vivo, rice flat sedge (Cyperus iria)
How it was run: as §3

[22] = tested on: southern crabgrass; test: Test Example 5: herbicidal effect by foliage application, plastic box (Table 20, symbol F); format: in vivo, southern crabgrass (Digitaria ciliaris); settings: foliage application, 320 g/ha, three weeks after application
How it was run: as §2

[23] = tested on: oval-leafed pondweed; test: Test Example 1: herbicidal activity, application before weed generation under submerged conditions (Table 16, symbol C); format: in vivo, oval-leafed pondweed (Monochoria vaginalis); settings: amount of applied herbicide 320 g/ha
How it was run: as §4

[24] = tested on: velvetleaf; test: Test Example 4: herbicidal effect by soil treatment (Table 19, symbol M); format: in vivo, velvetleaf (Abutilon theophrasti); settings: amount of applied herbicide 320 g/ha
How it was run: as §1

[25] = tested on: windgrass; test: Test Example 4: herbicidal effect by soil treatment (Table 19, symbol L); format: in vivo, windgrass (Apera spica-venti); settings: amount of applied herbicide 320 g/ha
How it was run: as §1

[26] = tested on: redroot pigweed; test: Test Example 4: herbicidal effect by soil treatment (Table 19, symbol N); format: in vivo, redroot pigweed (Amaranthus retroflexus); settings: amount of applied herbicide 320 g/ha
How it was run: as §1

[27] = tested on: Italian ryegrass; test: Test Example 5: herbicidal effect by foliage application, plastic box (Table 20, symbol K); format: in vivo, Italian ryegrass (Lolium multiflorum); settings: foliage application, 320 g/ha, three weeks after application
How it was run: as §2

[28] = tested on: wild oat; test: Test Example 4: herbicidal effect by soil treatment (Table 19, symbol I); format: in vivo, wild oat (Avena fatua); settings: amount of applied herbicide 320 g/ha
How it was run: as §1

[29] = tested on: persian speedwell; test: Test Example 4: herbicidal effect by soil treatment (Table 19, symbol R); format: in vivo, Persian speedwell (Veronica persica); settings: amount of applied herbicide 320 g/ha
How it was run: as §1

[30] = amount of applied herbicide 320 g/ha

| Structure (SMILES) | G: green foxtail, herbicidal effect grade [1] | Q: false cleavers, herbicidal effect grade [2] | J: blackgrass, herbicidal effect grade [3] | herbicidal effect on windgrass (L) [4] | herbicidal effect on barnyard grass (H) [5] | herbicidal effect on lambsquarters (O) [6] | H: barnyard grass, herbicidal effect grade [8] | herbicidal effect on blackgrass (J) [9] | P: chickweed, herbicidal effect grade [10] | herbicidal effect on velvetleaf (M) [11] | herbicidal effect on persian speedwell (R) [12] | O: lambsquarters, herbicidal effect grade [13] | herbicidal effect on green foxtail (G) [14] | Herbicidal effect, B: Japanese bulrush [15] | Herbicidal effect, A: late watergrass [17] | K: Italian ryegrass, herbicidal effect grade [18] | herbicidal effect on wild oat (I) [19] | F: southern crabgrass, herbicidal effect grade [20] | herbicidal effect on southern crabgrass (F) [22] | Herbicidal effect, C: oval-leafed pondweed [23] | also measured |
| --- | --- | --- | --- | --- | --- | --- | --- | --- | --- | --- | --- | --- | --- | --- | --- | --- | --- | --- | --- | --- | --- |
| Cc1nn(C)c(=O)c(-c2c(-c3ccc(OC(F)F)cc3)sc3cc(F)c(F)cc23)c1O [5-084] | 2 (Herbicidal rate of 20% or more and less than 40%) | 2 (Herbicidal rate of 20% or more and less than 40%) | 0 (Herbicidal rate of 5% or less (almost no effect)) | 5 (Herbicidal rate of 90% or more (almost completely withered)) | 2 (Herbicidal rate of 20% or more and less than 40%) | 5 (Herbicidal rate of 90% or more (almost completely withered)) | 1 (Herbicidal rate of 5% or more and less than 20%) | 4 (Herbicidal rate of 70% or more and less than 90%) | 0 (Herbicidal rate of 5% or less (almost no effect)) | 5 (Herbicidal rate of 90% or more (almost completely withered)) | 5 (Herbicidal rate of 90% or more (almost completely withered)) | 5 (Herbicidal rate of 90% or more (almost completely withered)) | 4 (Herbicidal rate of 70% or more and less than 90%) | 2 (Herbicidal rate of 20% or more and less than 40%) | 3 (Herbicidal rate of 40% or more and less than 70%) | 0 (Herbicidal rate of 5% or less (almost no effect)) | 3 (Herbicidal rate of 40% or more and less than 70%) | 0 (Herbicidal rate of 5% or less (almost no effect)) | 4 (Herbicidal rate of 70% or more and less than 90%) | 0 (Herbicidal rate of 5% or less (almost no effect)) | herbicidal effect on Chinese sprangletop (D) ([7]; 320 g/ha): 0 (Herbicidal rate of 5% or less (almost no effect)); herbicidal effect on barnyard grass (H) ([16]; 320 g/ha): 4 (Herbicidal rate of 70% or more and less than 90%); herbicidal effect on rice flat sedge (E) ([21]; 320 g/ha): 3 (Herbicidal rate of 40% or more and less than 70%); M: velvetleaf, herbicidal effect grade [24]: 4 (Herbicidal rate of 70% or more and less than 90%); L: windgrass, herbicidal effect grade [25]: 5 (Herbicidal rate of 90% or more (almost completely withered)); N: redroot pigweed, herbicidal effect grade [26]: 5 (Herbicidal rate of 90% or more (almost completely withered)); herbicidal effect on Italian ryegrass (K) [27]: 5 (Herbicidal rate of 90% or more (almost completely withered)); I: wild oat, herbicidal effect grade [28]: 0 (Herbicidal rate of 5% or less (almost no effect)); R: persian speedwell, herbicidal effect grade [29]: 3 (Herbicidal rate of 40% or more and less than 70%) |
| Cc1nn(C)c(=O)c(-c2c(-c3ccc(OCC(F)(F)F)cc3)oc3ccc(F)cc23)c1O [9-035] | 5 (Herbicidal rate of 90% or more (almost completely withered)) | 3 (Herbicidal rate of 40% or more and less than 70%) | 5 (Herbicidal rate of 90% or more (almost completely withered)) | 5 (Herbicidal rate of 90% or more (almost completely withered)) | 5 (Herbicidal rate of 90% or more (almost completely withered)) | 4 (Herbicidal rate of 70% or more and less than 90%) | 5 (Herbicidal rate of 90% or more (almost completely withered)) | 5 (Herbicidal rate of 90% or more (almost completely withered)) | 5 (Herbicidal rate of 90% or more (almost completely withered)) | 5 (Herbicidal rate of 90% or more (almost completely withered)) | 5 (Herbicidal rate of 90% or more (almost completely withered)) | 5 (Herbicidal rate of 90% or more (almost completely withered)) | 5 (Herbicidal rate of 90% or more (almost completely withered)) | 0 (Herbicidal rate of 5% or less (almost no effect)) | 2 (Herbicidal rate of 20% or more and less than 40%) | 5 (Herbicidal rate of 90% or more (almost completely withered)) | 5 (Herbicidal rate of 90% or more (almost completely withered)) | 5 (Herbicidal rate of 90% or more (almost completely withered)) | 5 (Herbicidal rate of 90% or more (almost completely withered)) | 0 (Herbicidal rate of 5% or less (almost no effect)) | Herbicidal effect on D (Chinese sprangletop), foliage application [7, 30]: 3 (Herbicidal rate of 40% or more and less than 70%); Herbicidal effect on H (barnyard grass), foliage application [16, 30]: 5 (Herbicidal rate of 90% or more (almost completely withered)); Herbicidal effect on E (rice flat sedge), foliage application [21, 30]: 5 (Herbicidal rate of 90% or more (almost completely withered)); M: velvetleaf, herbicidal effect grade [24]: 4 (Herbicidal rate of 70% or more and less than 90%); L: windgrass, herbicidal effect grade [25]: 5 (Herbicidal rate of 90% or more (almost completely withered)); N: redroot pigweed, herbicidal effect grade [26]: 5 (Herbicidal rate of 90% or more (almost completely withered)); herbicidal effect on Italian ryegrass (K) [27]: 5 (Herbicidal rate of 90% or more (almost completely withered)); I: wild oat, herbicidal effect grade [28]: 2 (Herbicidal rate of 20% or more and less than 40%); R: persian speedwell, herbicidal effect grade [29]: 5 (Herbicidal rate of 90% or more (almost completely withered)) |
